From US20230286927A1, “2-PHENYLBENZOTRIAZOL-5-AMINE DERIVATIVES FOR THE TREATMENT AND PROPHYLAXIS OF HEPATITIS B VIRUS (HBV) INFECTION” (priority 2020, published 2023)

Experiments:
HBsAg = assay: PHH natural infection assay, HBsAg (alphalisa); format: cell-based, HBV; conditions: Hepatitis B virus, Hepatocyte, 72 h, read-out: HBsAg IC50
Method: (§1) Detailed procedures regarding primary human hepatocyte (PHH) HBV natural infection assay are described as below. One tube of frozen PHH (10 million cells) is thawed in 37° C. water bath and then transferred to 20 mL of PHH thawing medium (Sigma, InVitroGRO HT Medium, Cat. S03319) with gently mixing. The cells were then centrifuged at […] for 5 min, the supernatant was discarded and the tube was refilled with 25 mL of PHH plating medium (Sigma, InVitroGRO CP Medium, Cat. S03317). The tube was shaken very gently to re-suspend all cells, and then 50 μl of cells were transferred to each well 384-well collagen I coated plate with appropriate liquid handling equipment, e.g. Integra VIAFLO384 or Agilent Bravo. The cells were then cultured for 24 hours in a cell incubator. For HBV infection, after PHH attachment on the culture plate, the plating medium was removed and replenished with PHH culture medium containing HBV virus. The PHH culture medium was prepared with Dulbecco's Modified Eagle Medium (DMEM)/F12 (1:1 in volume ratio) containing 10% fetal bovine serum (Gibco, Cat. 10099141), 5 ng/mL human epidermal growth factor (Gibco, Cat.PHG031IL), 20 ng/mL dexamethasone (Sigma, Cat.D4902-100 mg), 250 ng/mL human recombinant insulin (Gibco, Cat.41400045) and 100 U/mL penicillin. HBV virus at 200 genome equivalent (GE) per cell with 4% PEG8000 (Sigma, Cat.P1458) containing culture medium were added to the PHH culture medium for infection. The cells were then cultured for 24 hours in cell incubator. Then the cell culture supernatant was removed. The HBV-infected PHH were cultured with sandwich culture method with PHH culture medium containing 1% DMSO and 0.25 mg/mL matrix gel for 72 hours. The supernatant was then refreshed with PHH culture medium containing different concentrations of testing compounds for two times with 72-hour interval. At the end of treatment, the supernatant was collected for viral markers measurements, including HBsAg, HBeAg, HBV DNA and cytotoxicity. HBsAg and HBeAg were detected using alphalisa method using their specific antibodies. For HBV DNA detection, HBV DNA Quantitative Fluorescence Diagnostic Kit (Sansure Biotech Inc.) was used following the manufacture's protocol. Cytotoxicity was determined using Cell Counting Kit-8 (CCK8, Dojindo Molecular Technologies, Inc.).
(§2) The compounds of the present invention were tested for their capacity to inhibit HBsAg and HBeAg as described herein.

HBeAg = assay: PHH natural infection assay, HBeAg (alphalisa); format: cell-based, HBV; conditions: Hepatitis B virus, Hepatocyte, 72 h, read-out: HBeAg IC50
Method: as §1, §2

[1] = Cytotoxicity in PHH natural infection assay (Cell Counting Kit-8); format: cell-based; conditions: HBV-infected primary human hepatocytes, CCK8
Method: as §1

SMILES | IC50 (HBsAg) [µM] | IC50 (HBeAg) [µM] | CC50 at 144 h [1] [µM]
CN(C)c1ccc2nn(-c3ccc(Cl)cc3)nc2c1 [Example 33, 2-(4-Chlorophenyl)-N,N-dimethyl-benzotriazol-5-amine] | 4 | 3.71 | > 100
COCCNc1ccc2nn(-c3ccc(Cl)cc3)nc2c1 [Example 15, 2-(4-Chlorophenyl)-N-(2-methoxyethyl)benzotriazol-5-amine] | 3.71 | 2.36 | > 100
CNc1ccc2nn(-c3ccc(Cl)cc3)nc2c1 [Example 12, 2-(4-Chlorophenyl)-N-methyl-benzotriazol-5-amine] | 1.83 | 2.44 | > 100
CC(C)C(=O)NC(=S)Nc1ccc2nn(-c3ccc(Cl)cc3)nc2c1 [Example 57, N-[[2-(4-chlorophenyl)benzotriazol-5-yl]carbamothioyl]-2-methyl-propanamide] | 2.5 | 3.72 | > 100
O=C(Nc1ccc2nn(-c3ccc(Cl)cc3)nc2c1)C1CCCC1 [Example 49, N-[2-(4-chlorophenyl)benzotriazol-5-yl]cyclopentanecarboxamide] | 2.84 | 1.29 | > 100
O=C(NC(=S)Nc1ccc2nn(-c3ccc(Cl)cc3)nc2c1)C1CCCC1 [Example 56, N-[[2-(4-chlorophenyl)benzotriazol-5-yl]carbamothioyl]cyclopentanecarboxamide] | 3.45 | 7.5 | > 100
O=C(CC(F)(F)F)Nc1ccc2nn(-c3ccc(Cl)cc3)nc2c1 [Example 51, N-[2-(4-chlorophenyl)benzotriazol-5-yl]-3,3,3-trifluoro-propanamide] | 4.09 | 1.66 | > 100
O=C(Nc1ccc2nn(-c3ccc(F)cc3)nc2c1)C1CCOCC1 [Example 41, N-[2-(4-fluorophenyl)benzotriazol-5-yl]tetrahydropyran-4-carboxamide] | 2.19 | 2.31 | > 100
O=C(Nc1ccc2nn(-c3ccc(F)cc3)nc2c1)C1CCOC1 (stereo not drawn) [Example 40, N-[2-(4-fluorophenyl)benzotriazol-5-yl]tetrahydrofuran-3-carboxamide] | 6.66 | 6.76 | > 100
O=C(Nc1ccc2nn(-c3ccc(Cl)cc3)nc2c1)C1COCCO1 (stereo not drawn) [Example 47, N-[2-(4-chlorophenyl)benzotriazol-5-yl]-1,4-dioxane-2-carboxamide] | 3.73 | 1.84 | > 100
Nc1ccc2nn(-c3ccc(Cl)cc3)nc2c1 [Example 2, 2-(4-Chlorophenyl)benzotriazol-5-amine] | 7.97 | 5.29 | > 100
COCCNc1ccc2nn(-c3ccc(S(C)(=O)=O)cc3)nc2c1 [Example 19, N-(2-methoxyethyl)-2-(4-methylsulfonylphenyl)benzotriazol-5-amine] | 8.94 | 6.97 | > 100
CC(C)CS(=O)(=O)c1ccc(-n2nc3ccc(N)cc3n2)cc1 [Example 10, 2-(4-Isobutylsulfonylphenyl)benzotriazol-5-amine] | 9.57 | 5.56 | > 100
Clc1ccc(-n2nc3ccc(Nc4nc(-c5ccccc5)cs4)cc3n2)cc1 [Example 63, N-[2-(4-chlorophenyl)benzotriazol-5-yl]-4-phenyl-thiazol-2-amine] | 1.52 | 1.34 | > 100
CC(=O)NC(=S)Nc1ccc2nn(-c3ccc(Cl)cc3)nc2c1 [Example 55, N-[[2-(4-chlorophenyl)benzotriazol-5-yl]carbamothioyl]acetamide] | 2.97 | 5.1 | > 100
CC(C)Nc1ccc2nn(-c3ccc(Cl)cc3)nc2c1 [Example 30, 2-(4-Chlorophenyl)-N-isopropyl-benzotriazol-5-amine] | 3.75 | 6.61 | > 100
O=C(NC(=S)Nc1ccc2nn(-c3ccc(Cl)cc3)nc2c1)c1ccccc1 [Example 58, N-[[2-(4-chlorophenyl)benzotriazol-5-yl]carbamothioyl]benzamide] | 1.17 | 1.27 | > 100

SMILES | IC50 (HBsAg) [µM] | IC50 (HBeAg) [µM] | CC50 at 144 h [1] [µM]
CCCNc1ccc2nn(-c3ccc(Cl)cc3)nc2c1 [Example 14, 2-(4-Chlorophenyl)-N-propyl-benzotriazol-5-amine] | 2.92 | 3.97 | > 100
CCN(C)c1ccc2nn(-c3ccc(Cl)cc3)nc2c1 [Example 36, 2-(4-Chlorophenyl)-N-ethyl-N-methyl-benzotriazol-5-amine] | 4.03 | 4.45 | > 100
O=C(Nc1ccc2nn(-c3ccc(F)cc3)nc2c1)C1CCCCO1 (stereo not drawn) [Example 42, N-[2-(4-fluorophenyl)benzotriazol-5-yl]tetrahydropyran-2-carboxamide] | 6.38 | 6.12 | > 100
CCNc1ccc2nn(-c3ccc(Cl)cc3)nc2c1 [Example 13, 2-(4-Chlorophenyl)-N-ethyl-benzotriazol-5-amine] | 1.3 | 1.6 | > 100
c1ccc(-n2nc3ccc(NC4CCCC4)cc3n2)cc1 [Example 16, N-cyclopentyl-2-phenyl-benzotriazol-5-amine] | 9.25 | 15.8 | > 100
CC(Nc1ccc2nn(-c3ccc(Cl)cc3)nc2c1)C(F)(F)F (stereo not drawn) [Example 32, 2-(4-Chlorophenyl)-N-(2,2,2-trifluoro-1-methyl-ethyl)benzotriazol-5-amine] | 9.14 | 10.7 | > 100
Cc1nc(Nc2ccc3nn(-c4ccc(Cl)cc4)nc3c2)sc1C [Example 65, N-[2-(4-chlorophenyl)benzotriazol-5-yl]-4,5-dimethyl-thiazol-2-amine] | 2.67 | 2.91 | > 100
CN(C)C(=S)Nc1ccc2nn(-c3ccc(Cl)cc3)nc2c1 [Example 61, 3-[2-(4-Chlorophenyl)benzotriazol-5-yl]-1,1-dimethyl-thiourea] | 0.79 | 1.22 | > 100
FC(F)(F)CNc1ccc2nn(-c3ccc(Cl)cc3)nc2c1 [Example 28, 2-(4-Chlorophenyl)-N-(2,2,2-trifluoroethyl)benzotriazol-5-amine] | 2.14 | 2.46 | > 100
Nc1ccc2nn(-c3cccc(F)c3)nc2c1 [Example 5, 2-(3-Fluorophenyl)benzotriazol-5-amine] | 3.57 | 6.72 | > 100
Clc1ccc(-n2nc3ccc(NCC4CCC4)cc3n2)cc1 [Example 24, 2-(4-Chlorophenyl)-N-(cyclobutylmethyl)benzotriazol-5-amine] | 7.72 | 8.9 | > 100
COc1cccc(-n2nc3ccc(N)cc3n2)c1 [Example 6, 2-(3-Methoxyphenyl)benzotriazol-5-amine] | 2.44 | 4.1 | > 100
Cc1cc(N)cc2nn(-c3ccc(Cl)cc3)nc12 [Example 11, 2-(4-Chlorophenyl)-7-methyl-benzotriazol-5-amine] | 2.66 | 3.89 | > 100
Nc1ccc2nn(-c3cccc(Cl)c3)nc2c1 [Example 1, 2-(3-Chlorophenyl)benzotriazol-5-amine] | 1.2 | 1.8 | > 100
CCS(=O)(=O)c1ccc(-n2nc3ccc(N)cc3n2)cc1 [Example 8, 2-(4-Ethylsulfonylphenyl)benzotriazol-5-amine] | 6.32 | 6.26 | > 100
COCCNc1ccc2nn(-c3cccc(OC)c3)nc2c1 [Example 17, N-(2-methoxyethyl)-2-(3-methoxyphenyl)benzotriazol-5-amine] | 8.06 | 15.4 | > 100
CNC(=O)CCNc1ccc2nn(-c3ccc(Cl)cc3)nc2c1 [Example 37, 3-[[2-(4-Chlorophenyl)benzotriazol-5-yl]amino]-N-methyl-propanamide] | 4.64 | 8.68 | > 100
